Experimental data from patent US9751840B2, “R-7-(3-aminomethyl-4-methoxyimino-3-methyl-pyrrolidin-1-yl)-1-cyclopropyl-6-fluoro-4-oxo-acid and L-aspartic acid salt, process for the preparation thereof and pharmaceutical composition comprising the same for antimicrobial” (ARIBIO CO. LTD., priority 2009, dated 2017).
Like-named read-outs stand apart in the source and are kept apart here.

What was measured:
[1] = In vivo tissue distribution test; design: species or system ICR mice; conditions: ICR, mouse, spleen, po, 100 mg/kg; read-out: P ratio Spleen
[2] = In vivo tissue distribution test; design: species or system ICR mice; conditions: mouse, po; for Kp: ICR, 100 mg/kg
Protocol: An in vivo tissue distribution test was performed in order to confirm the degree of drug distribution of the L-aspartate and hydrochloride according to the present invention in each organ. After 8-week-old ICR mice were purchased and adapted in the laboratory, each salt was orally administered to the mouse at a dose of 100 mg/kg. The mice were bled and sacrificed at a predetermined time and each organ was drawn to measure the concentration in each organ. After the administration of hydrochloride and L-aspartate, each organ concentration over time, the area under the corresponding time-concentration curve, and the ratio of permeation into tissue were shown in Tables 5 and 6.
Then, P ratio is a ratio of permeation into muscle and calculated as intramuscular AUC/intraplasmic AUC.

[3] = system: polychromatic erythrocyte with one or more nuclei (MNPCE); assay: In vivo genotoxicity, micronucleus test; conditions: male mice, intraperitoneal, 7.5 mg/kg
Excerpt: The following study performed to obtain in vivo genotoxicities, micronucleus test of L-aspartate and hydrochloric acid salt in male mice to the following procedure.

[4] = Stability test in distilled water; format: physicochemical; conditions: 30 mg in 100 ml distilled water
[5] = In vivo pharmacokinetic test; design: species or system SD rats; conditions: rats; for AUC(0-t) / Cmax / Tmax: SD, rat, plasma
Excerpt: The L-aspartate and hydrochloride according to the present invention were orally or intravenously administered to SD rats, respectively and blood samples were collected at a predetermined time to compare in vivo pharmacokinetics.
Then, Cmax: maximum drug concentration, Tmax: maximum drug concentration time, T1/2: drug half-life, AUCO-t: area under the plasma concentration-time curve from time zero to t hours, and AUCO-inf: area under the plasma concentration-time curve from time zero to infinity.

Solubility test = format: physicochemical; conditions: room temperature, water
Male ICR mice = assay: Single dose toxicity in mice (LD50); conditions: single intraperitoneal dose, observed 14 days
Protocol: The following experiment was performed in order to observe the degree of toxicity of the L-aspartate according to the present invention.
Male ICR mice were used as experimental animals. 5 male ICR mice were divided into 6 dose groups, respectively and fasted except for water for 24 hours.

[6] = male, testicle, ICR mice, p.o. 100 mg/kg, read-out: Testicle concentration
[7] = brain, ICR mice, p.o. 100 mg/kg, read-out: Brain concentration
[8] = heart, ICR mice, p.o. 100 mg/kg, read-out: Heart concentration
[9] = kidney, ICR mice, p.o. 100 mg/kg, read-out: Kidney concentration
[10] = liver, ICR mice, p.o. 100 mg/kg, read-out: Liver concentration
[11] = lung, ICR mice, p.o. 100 mg/kg, read-out: Lung concentration
[12] = muscle, ICR mice, p.o. 100 mg/kg, read-out: Muscle concentration
[13] = plasma, ICR mice, p.o. 100 mg/kg, read-out: Plasma concentration
[14] = spleen, ICR mice, p.o. 100 mg/kg, read-out: Spleen concentration
[15] = testicle, ICR mice, p.o. 100 mg/kg, read-out: Testicle concentration
[16] = thymus, ICR mice, p.o. 100 mg/kg, read-out: Thymus concentration

CON=C1CN(c2nc3c(cc2F)c(=O)c(C(=O)O)cn3C2CC2)C[C@@]1(C)CN.Cl [Hydrochloride (Comparative Example 3)]
Kp [1]: 8.66 | Kp ([2]; brain, read-out: P ratio Brain): 0.27 | Kp ([2]; heart, read-out: P ratio Heart): 4.19 | Kp ([2]; kidney, read-out: P ratio Kidney): 6.59 | Kp ([2]; liver, read-out: P ratio Liver): 10.5 | Kp ([2]; lung, read-out: P ratio Lung): 5.59 | Kp ([2]; muscle, read-out: P ratio Muscle): 3.92 | Kp ([2]; thymus, read-out: P ratio Thymus): 4.83 | Kp ([2]; male, testicle, read-out: P ratio Testicle): 1.7 | concentration at 0.5 h [2, 6]: 4790 ng/g | concentration at 1 h [2, 6]: 8360 ng/g | concentration at 8 h [2, 6]: 7770 ng/g | concentration at 0.5 h [2, 7]: 2510 ng/g | concentration at 1 h [2, 7]: 3090 ng/g | concentration at 1.5 h [2, 7]: 2720 ng/g | concentration at 2 hr [2, 7]: 3180 ng/g | concentration at 3 h [2, 7]: 1990 ng/g | concentration at 5 h [2, 7]: 1600 ng/g | concentration at 8 h [2, 7]: 730 ng/g | concentration at 0.5 h [2, 8]: 59300 ng/g | concentration at 1 h [2, 8]: 61200 ng/g | concentration at 1.5 hr [2, 8]: 52700 ng/g | concentration at 2 hr [2, 8]: 57600 ng/g | concentration at 3 h [2, 8]: 25500 ng/g | concentration at 5 h [2, 8]: 17300 ng/g | concentration at 8 h [2, 8]: 8860 ng/g | concentration at 0.5 h [2, 9]: 90800 ng/g | concentration at 1 h [2, 9]: 87800 ng/g | concentration at 1.5 h [2, 9]: 75500 ng/g | concentration at 2 hr [2, 9]: 69900 ng/g | concentration at 3 h [2, 9]: 43000 ng/g | concentration at 5 h [2, 9]: 32800 ng/g | concentration at 8 h [2, 9]: 18000 ng/g | concentration at 0.5 h [2, 10]: 161000 ng/g | concentration at 1 h [2, 10]: 125000 ng/g | concentration at 1.5 h [2, 10]: 113000 ng/g | concentration at 2 hr [2, 10]: 109000 ng/g | concentration at 3 h [2, 10]: 69000 ng/g | concentration at 5 h [2, 10]: 55700 ng/g | concentration at 8 h [2, 10]: 27000 ng/g | concentration at 0.5 h [2, 11]: 82800 ng/g | concentration at 1 h [2, 11]: 79500 ng/g | concentration at 1.5 h [2, 11]: 73600 ng/g | concentration at 2 hr [2, 11]: 63700 ng/g | concentration at 3 h [2, 11]: 38800 ng/g | concentration at 5 h [2, 11]: 23400 ng/g | concentration at 8 h [2, 11]: 11400 ng/g | concentration at 0.5 h [2, 12]: 39800 ng/g | concentration at 1 h [2, 12]: 52000 ng/g | concentration at 1.5 h [2, 12]: 50400 ng/g | concentration at 2 hr [2, 12]: 50800 ng/g | concentration at 3 h [2, 12]: 28300 ng/g | concentration at 5 h [2, 12]: 18400 ng/g | concentration at 8 h [2, 12]: 8260 ng/g | concentration at 0.5 h [2, 13]: 15500 ng/mL | concentration at 1 h [2, 13]: 14200 ng/mL | concentration at 1.5 h [2, 13]: 12100 ng/mL | concentration at 2 hr [2, 13]: 12000 ng/mL | concentration at 3 h [2, 13]: 6240 ng/mL | concentration at 5 h [2, 13]: 4320 ng/mL | concentration at 8 h [2, 13]: 2290 ng/mL | AUC(0-t) ([2]; plasma, ICR mice, p.o. 100 mg/kg, read-out: AUC0-t Plasma): 53600 ng·h/mL | concentration at 0.5 h [2, 14]: 102000 ng/g | concentration at 1 h [2, 14]: 112000 ng/g | concentration at 1.5 hr [2, 14]: 107000 ng/g | concentration at 2 hr [2, 14]: 102000 ng/g | concentration at 3 h [2, 14]: 59800 ng/g | concentration at 5 h [2, 14]: 42100 ng/g | concentration at 8 h [2, 14]: 21500 ng/g | concentration at 1.5 hr [2, 15]: 12700 ng/g | concentration at 2 hr [2, 15]: 17000 ng/g | concentration at 3 h [2, 15]: 14200 ng/g | concentration at 5 h [2, 15]: 12900 ng/g | concentration at 0.5 h [2, 16]: 24600 ng/g | concentration at 1 h [2, 16]: 58000 ng/g | concentration at 1.5 hr [2, 16]: 60800 ng/g | concentration at 2 hr [2, 16]: 61300 ng/g | concentration at 3 h [2, 16]: 38400 ng/g | concentration at 5 h [2, 16]: 25700 ng/g | concentration at 8 h [2, 16]: 12800 ng/g | MNPCE number [3]: singificantly increase | Content (%) 60? (after 3 weeks) ([4]; 60?, 3 weeks): 90.0% | Content (%) Initial ([4]; initial): 97.9% | Content (%) Room temperature (after 3 weeks) ([4]; room temperature, 3 weeks): 98.0% | AUC(0-t) ([5]; iv, i.v. 10 mg/kg): 8720 ± 330 ng·h/mL | Cmax ([5]; iv, i.v. 10 mg/kg): 4460 ± 960 ng/mL | Tmax ([5]; iv, i.v. 10 mg/kg): 0 h | AUC(0-t) ([5]; po, p.o. 100 mg/kg): 44400 ± 21400 ng·h/mL | Cmax ([5]; po, p.o. 100 mg/kg): 7620 ± 3930 ng/mL | Tmax ([5]; po, p.o. 100 mg/kg): 2.13 ± 1.97 h | BA (%) ([5]; p.o. 100 mg/kg, calculated by ratio of AUC0-t): 50.96% | solubility (Solubility test): 93.3 mg/mL | Lethal dose 50 (Male ICR mice): 176 mg/kg
